Results published in patent publication US7879795B2, “Enhancement of tigecycline potency using efflux pump inhibitors” (Mpex Pharmaceuticals, Inc., priority 2004, dated 2011).

What was measured:
[1] = test system: PAM 1032, nalB, MexAB-OprM over-expressed; assay: microbe, parasite or virus in culture; assay type: cell-based, P. aeruginosa; parameters: Tigecycline MIC in the presence of Compound 21: unit not given here; conditions: PAM 1032
Method: The ability of compound 21 to increase susceptibility to tigecycline was also assessed. The tigecycline potentiating activity of compound 21 was assessed by the checkerboard assay (Antimicrobial Combinations, Antibiotics in Laboratory Medicine, ed. Victor Lorian, M.D., Fourth edition, 1996, pp 333-338, which is incorporated herein by reference in its entirety) using a broth micro-dilution method performed as recommended by the CSLI (Clinical and Laboratory Standards Institute, formerly NCCLS) guidelines (National Committee for Clinical Laboratory Standards 2003. Methods for Dilution Antimicrobial Susceptibility Tests for Bacteria That Grow Aerobically—Sixth Edition; Approved Standard. NCCLS Document M7-A6, Vol 20 No. 2). In this assay, multiple dilutions of the two drugs, compound 21 and tigecycline, were tested alone and in combination, at concentrations equal to, above and below their respective minimal inhibitory concentrations (MICs). […] The stock solution was further diluted in Mueller Hinton Broth (MHB). Stock solutions were stored at −80° C.
The checkerboard assay was performed in microtiter plates. Tigecycline was diluted in the x axis, each column containing a single concentration of tigecycline. Compound 21 was diluted in the y axis, each row containing an equal concentration of the EPI. […] The assay was performed in MHB with a final bacterial inoculum of 5×10^5 CFU/ml (from an early-log phase culture). The microtiter plates were incubated for 20 hours at 35° C. and then read using a microtiter plate reader (Molecular Devices) at 650 nm, as well as by visual observation using a microtiter plate-reading mirror.
P. aeruginosa strain PAM 1032 was grown in Mueller-Hinton Broth (MHB) at 35° C. under constant aeration. After 20 hours, the inoculum was sub-cultured into fresh MHB and allowed to regrow at 35° C., under constant aeration, for 4 hours. The inoculum was adjusted to ca. 4×10^7 CFU/ml by correlation of absorbance at 600 nm with predetermined plate counts. The inoculum was then diluted 2-fold in 14% hog-gastric mucin (Sigma, St. Louis, Mo.) for a final inoculum concentration of 2×10^7 CFU/ml. […] At 0 and 2 hours following infection, tigecycline was administered by the subcutaneous route and compound 21 was administered by the intraperitoneal route.

[2] = test system: Enterobacter aerogenes 19; assay: Antibiotic MIC with fixed concentration of compound 21, Enterobacter aerogenes 19; assay type: cell-based
[3] = test system: Burkholderia, Proteus, Morganella, Providencia and Serratia; assay: Potentiation of tigecycline against other gram-negative clinical isolates; assay type: cell-based; conditions: in words
Method: To further characterize the clinical potential of tigecycline/EPI combinations, the microbiological activity of tigecycline in combination with compound 21 was investigated using clinical isolates of P. aeruginosa and other gram-negative bacteria. In several experiments, described below, the impact of a fixed concentration of compound 21 (2.5 μg/ml) on susceptibility to tigecycline was determined.
Strains with decreased susceptibility to tigecycline were also present among representatives of Burkholderia, Proteus, Morganella, Providencia and Serratia. […] While not being bound by any particular theory, it is probable that the lack of potentiation by compound 21 is due to limited uptake of this particular EPI across the outer membrane of these bacteria, rather than the absence of efflux pumps.

[4] = test system: Enterobacteriaceae, Acinetobacter, Burkholderia, Stenotrphomonas, Staphylococcus; conditions: Example 86, written in present tense
PAM1723 = conditions: Table 3
Method: Stability in rat and human serum was also evaluated using a bioassay. 320 μg/ml of the test compound was treated with 50% serum for 4 hours.
Bioassays as described in Example 62 and Example 65 were used to evaluate the stability of various compounds in serum and rabbit kidney homogenates.

[5] = Stability in human kidney tissue preparations; assay type: in vitro ADME; conditions: in words
Text: The pattern of in vitro stability of compound 3 (stable in serum but unstable in tissues) observed in rodents was also reproduced using human kidney tissues or serum. FIG. 7 compares the in vitro stability of compounds 1 and 3 in human kidney tissue preparations.
FIG. 8 depicts formation of the metabolite, compound 67, in human kidney tissue. Concomitant with the disappearance of compound 3, generation of the expected metabolite of the presumed intralysosomal degradation, compound 67, was detected using human kidney.

[6] = Acute toxicity, minimal lethal dose after IV bolus in mice; assay type: in vivo, mouse; conditions: IV bolus into tail vein, lethal for at least one of three mice
Method: Acute toxicity was measured as minimal lethal dose (MLD). MLD is defined as a minimal concentration of a compound that has lethal effect for at least one mouse from the group of three mice after IV bolus injection into the mouse tail vein.

Row | Structure (SMILES) | Tigecycline MIC in the presence of Compound 21 ([1]; Compound 21 0.625 μg/ml) | Tigecycline MIC in the presence of Compound 21 ([1]; Compound 21 1.25 μg/ml) | Tigecycline MIC in the presence of Compound 21 ([1]; Compound 21 5 μg/ml) | Tigecycline MIC in the presence of Compound 21 ([1]; Compound 21 10 μg/ml) | Tigecycline MIC in the presence of Compound 21 ([1]; Compound 21 20 μg/ml) | Tigecycline MIC in the presence of Compound 21 ([1]; Compound 21 40 μg/ml) | Tigecycline MIC in the presence of Compound 21 ([1]; Compound 21 […]) | Azi + EPI (MIC) ([2]; azithromycin MIC with compound 21) | Levo + EPI at […] (MIC) ([2]; levofloxacin MIC with compound 21 at […]) | Tig + EPI at […] (MIC) ([2]; tigecycline MIC with compound 21 at […]) | effect on susceptibility to tigecycline [3] | effect on tigecycline resistance and emergence of resistance [4] | EPI MPC8 after 4 hours at 37° C., Frosen Human serum (PAM1723; 50% human serum) | EPI MPC8 after 4 hours at 37° C., Frozen Rat serum (PAM1723; 50% rat serum) | EPI MPC8 after 4 hours at 37° C., Saline (PAM1723; saline) | degradation in homogenates prepared from frozen cadaverous human kidney [5] | pH dependence of degradation in human kidney homogenates [5] | MLD (minimal lethal dose) [6]
1 | NCCC[C@H](N)C(=O)N[C@H](Cc1ccc(C(F)(F)F)cc1)C(=O)Nc1cnc2ccccc2c1 [Compound 21, 2-(S),5-Diamino-pentanoic acid [1-(R)-(quinolin-3-ylcarbamoyl)-2-(4-trifluoromethyl-phenyl)-ethyl]amide] | 4 | 2 | 0.5 | 0.5 | 0.5 | 0.5 | 0.5 | 0.5 | 16 | 0.25 | did not decreased susceptibility to tigecycline | reduces tigecycline resistance and emergence of resistance |  |  |  |  |  | 
2 | NCCC[C@H](N)C(=O)N[C@H](CCc1ccccc1)C(=O)Nc1cnc2ccccc2c1 [Compound 3, 2-(S),5-Diamino-pentanoic acid [3-phenyl-1-(R)-(quinolin-3-ylcarbamoyl)-propyl]-amide] |  |  |  |  |  |  |  |  |  |  |  |  | 5 | 5 | 5 | Time-dependent degradation | stronger at lower pH | 25 mg/kg
